For experiment [1], the system named is dissociated hippocampal cultures (primary neurons). The experiment can be described thus: Neuronal viability assay (CFDA), neuroprotection from 30 mM ethanol. Type of experiment: cell-based, rat. As to conditions: Table 3, 5 hour test period, co-treatment with 30 mM ethanol; for EC50: read-out: CFDA (EC50 + SE). From the text:
Pre-coated poly-D-lysine coated plates will be used because of the adherence and survival of hippocampal neurons and glia on this matrix support.
Carboxyfluorescein (CFDA) was used a vital stain for all neuroprotection studies. With the use of the CytoFluor fluorimeter, the CFDA assay was employed to assess the viability of neurons. […] Neuronal specificity is obtained relative to astrocytes because the cleaved dye is extruded extracellularlly by glia with time, while dye in neurons remains intracellular.

In experiment [2] the test system is dissociated hippocampal cultures. The experiment in a line: Cell death assay (propidium iodide), protection from 30 mM ethanol. Particulars: Table 3, 5 hour test period, co-treatment with 30 mM ethanol; for IC50: read-out: Propidium Iodide (IC50 + SE). Type of experiment: cell-based, rat.

Regarding `CC/C=C\C/C=C\C/C=C\C/C=C\C/C=C\C/C=C\CCC(=O)OC[C@H](COP(=O)([O-])OCC[N+](C)(C)C)OC(=O)CC/C=C\C/C=C\C/C=C\C/C=C\C/C=C\C/C=C\CC` [PC 22:6-22:6], the EC50 in experiment [1] amounted to 283 ± 46 pM. In addition, in experiment [2], the IC50 was determined as 210 ± 53 pM.

As to `CC/C=C\C/C=C\C/C=C\CCCCCCCC(=O)OC[C@H](COP(=O)([O-])OCC[N+](C)(C)C)OC(=O)CCCCCCC/C=C\C/C=C\C/C=C\CC` [PC 18:3-18:3, 1,2-dilinolenoyl-phosphatidylcholine], in experiment [1], the EC50 turned out to be 202 ± 22 pM. Further, the IC50 in experiment [2] stood at 204 ± 88 pM.

With `CCCCC/C=C\C/C=C\CCCCCCCC(=O)OCC(COP(=O)([O-])OCC[N+](C)(C)C)OC(=O)CCCCCCC/C=C\C/C=C\CCCCC` (stereo not shown) [PC 18:2-18:2, 1,2-dilinoleoyl-phosphatidylcholine], the EC50 in experiment [1] came to 67 ± 22 pM. Besides, the half-inhibitory concentration (IC50) in experiment [2] turned out to be 44 ± 15 pM.

`CCCCC/C=C\C/C=C\C/C=C\C/C=C\CCCC(=O)OC[C@H](COP(=O)([O-])OCC[N+](C)(C)C)OC(=O)CCC/C=C\C/C=C\C/C=C\C/C=C\CCCCC` [PC 20:4-20:4, 1,2-diarachidonyl-phosphatidylcholine]: the EC50 in experiment [1] is 1 ± 0.08 pM. The IC50 in experiment [2] amounted to 1.2 ± 0.12 pM.

For PC 16:0-18:2 [reference compound], the “CFDA (EC50 + SE)” value in experiment [1] is given as “Inactive”. Besides, in experiment [2], the “Propidium Iodide (IC50 + SE)” value is “Inactive”.

For the origin of these results see patent US20220257620A1, “USE OF CERTAIN PHOSPHATIDYLCHOLINES CONTAINING LONG CHAIN POLYUNSATURATED FATTY ACIDS AS NEUROPROTECTIVE AGENTS” (KANNALIFE SCIENCES, INC., priority 2019, published 2022).
